From US5002932A, “Antiviral pharmaceutical compositions and method of treating herpes” (priority 1987, dated 1991)
Bridge positions count the residues as written; N and C are the ends. Square brackets hold non-standard residues; d marks the D form. Peptide text beside a SMILES is read from it. * marks the point of attachment. Ileψ(thiazoline)Cys = CC[C@H](C)[C@H](N)C1=N[C@H](C(=O)*)CS1; dOrn = NCCC[C@@H](N)C(=O)O

Key:
HSV-2 (strain HG-52) = assay: Inhibition of HSV-2 replication in serum-starved BHK 21/C13 cells (cell culture technique, virus titration); assay type: cell-based; details: for PFU per cell for control/PFU per cell for agent: 30 hours post infection; for PFU PER CELL: infected BHK 21/C13 cells harvested 30 hours post infection, control 67.00
Experimental: This method in a modified form is exemplified hereinafter.
(a) Preparation of serum-starved cells: A medium composed of alpha medium (Gibco Canada Inc, Burlington, Ontario, Canada) and fetal calf serum (Gibco Canada Inc.), in a 9:1 volume ratio, was placed in tissue culture dishes (35 mm, A/S Nunc, Kamstrup, Denmark). The medium in each dish was seeded with BHK 21/C13 cells (1.5 ×10^6 for each dish). (BHK 21/C13 cells have been described by Y. Langelier and G. Buttin, J. Gen. Virol., 57, 21 (1981)). After 6 hours, the medium was replaced with a new medium composed of alpha medium and fetal calf serum (99.5:0.5 v/v). The resultant preparation was incubated at 37° C. for 4 days.
(b) Cell infection in BBMT medium* without serum: The incubation medium was removed from the cells. The cells were washed twice with alpha medium (without the serum) and once with the BBMT medium. The cells were then incubated at 37° C. in BBMT medium for two hours. A series of viral solutions were prepared from a stock of HSV-2 (strain HG-52, described by Langelier and Buttin, supra) and the appropriate choice and amounts of the agents to be tested, diluted with BBMT to give viral solutions having a multiplicity of infection of 0.02 plaque forming units (PFU) per cell. A control viral solution (without any agent) also was prepared. Each viral solution (250 μl) was added to duplicate dishes containing the previously prepared cells in BBMT medium. After one hour of incubation at 37° C. for virus absorption, the medium in each dish was removed by aspiration. The cells were washed twice with BBMT medium. Fresh BBMT medium (800 μl), with or without (control) the appropriate concentration of the test agent, was added to the dishes which were further incubated at 37° C. Every six hours, a concentrated solution of bacitracin in BBMT was added to the appropriate dishes to maintain the initial concentration of that agent.
*BBMT medium is described by P. Brazeau et al., Proc. Natl. Acad. Sci. USA, 79, 7909 (1982).
(c) Harvesting: At 30 hours post-infection, cells were detached with a rubber policeman and frozen at -80° C. until titration.
(d) Titration: Virus titration were performed according to the method of B. B. Wentworth and L. French, Proc. Soc. Exp. Biol. Med., 131, 588 (1969).
The following table is illustrative of the results obtained when acyclovir, bacitracin and combinations thereof were tested for activity according to the preceding method. Results are expressed in PFU per cell for infected cells harvested at 30 hours post infection. The lower the PFU per cell value, the greater the inhibitory effect on viral replication of the tested agent.

[1] = tested on: herpes simplex virus type 1 (HSV-1); details: bacitracin used alone; reported by Alarcon et al.; cited from earlier work

Structure (SMILES)	PFU per cell for control/PFU per cell for agent (HSV-2 (strain HG-52); Acyclovir 0.50 μM)	PFU PER CELL (HSV-2 (strain HG-52); Acyclovir 0.50 μM) [PFU per cell]	PFU per cell for control/PFU per cell for agent (HSV-2 (strain HG-52); Acyclovir 2.00 μM)	PFU PER CELL (HSV-2 (strain HG-52); Acyclovir 2.00 μM) [PFU per cell]	activity against herpes simplex virus type 1 (HSV-1) [1]	PFU per cell for control/PFU per cell for agent (HSV-2 (strain HG-52); Bacitracin 0.25 mM)	PFU PER CELL (HSV-2 (strain HG-52); Bacitracin 0.25 mM) [PFU per cell]	PFU per cell for control/PFU per cell for agent (HSV-2 (strain HG-52); Bacitracin 0.50 mM)	PFU PER CELL (HSV-2 (strain HG-52); Bacitracin 0.50 mM) [PFU per cell]	PFU per cell for control/PFU per cell for agent (HSV-2 (strain HG-52); Bacitracin 0.75 mM)	PFU PER CELL (HSV-2 (strain HG-52); Bacitracin 0.75 mM) [PFU per cell]	PFU per cell for control/PFU per cell for agent (HSV-2 (strain HG-52); Bacitracin 1.00 mM)	PFU PER CELL (HSV-2 (strain HG-52); Bacitracin 1.00 mM) [PFU per cell]
Nc1nc2c(ncn2COCCO)c(=O)[nH]1 [Acyclovir, 9-((2-hydroxyethoxy)methyl)guanine]	3.96	16.9	13.67	4.9									
CC[C@H](C)[C@H](N)C1=N[C@H](C(=O)N[C@@H](CC(C)C)C(=O)N[C@H](CCC(=O)O)C(=O)N[C@H](C(=O)N[C@H]2CCCCNC(=O)[C@H](CC(N)=O)NC(=O)[C@@H](CC(=O)O)NC(=O)[C@H](Cc3cnc[nH]3)NC(=O)[C@@H](Cc3ccccc3)NC(=O)[C@H]([C@@H](C)CC)NC(=O)[C@@H](CCCN)NC2=O)[C@@H](C)CC)CS1 [Bacitracin] ({Ileψ(thiazoline)Cys}-L[dE]IK[dOrn]I[dF]H[dD]N; lactam 4-C)					inactive	62.0	1.08	515.0	0.13	4786.0	0.014	8375.0	0.008
